Measured values reported in patent publication US10933134B2, “Combination therapies for treatment of cancer” (priority 2017, dated 2021).
Non-standard residues stand in square brackets, D forms with d. Residues, ends and D or L forms follow the SMILES beside them. *: point of attachment. dPhe(4-NHCONH2) = NC(=O)Nc1ccc(C[C@@H](N)C(=O)O)cc1; Dihydroorotyl(S) = O=C1C[C@@H](C(=O)*)NC(=O)N1; dPhe(4-Cl) = N[C@H](Cc1ccc(Cl)cc1)C(=O)O; Phe(4-NH2) = Nc1ccc(C[C@H](N)C(=O)O)cc1; d2Nal = N[C@H](Cc1ccc2ccccc2c1)C(=O)O; Lys(iPr) = CC(C)NCCCC[C@H](N)C(=O)O; d3Pal = N[C@H](Cc1cccnc1)C(=O)O

Key:
total PSA (tPSA) = test: Serum total PSA in mice bearing LNCaP-AR tumors; assay type: in vivo; details: one, three, or seven days post-WST11 VTP (FIG. 5A)
Description: This assay measures free PSA and complexed PSA in an equimolar fashion [Ulmert et al., 2012; Mitrunen et al., 1995], and the cross-reactivity of PSA-ACT for free PSA is less than 0.2% [Pettersson et al., 1995]. The lower limits of detection are 0.1 ng/mL for both total PSA and free PSA. For detection, the 1235 automatic immunoassay system from Perkin-Elmer Life Sciences (Waltham, Mass.) was used.
(vii) Statistical analysis: Two-way ANOVA test using GraphPad Prism (GraphPad Software, La Jolla, Calif.) was used for therapeutic efficacy in affecting tumor growth, and One-way ANOVA for PSA and a Mann-Whitney test for CD31, Ki67 or TUNEL staining quantification. Differences with p values<0.05 were considered statistically significant.
To verify that AR activity was inhibited by the treatments, the levels of total PSA (tPSA) in serum of mice bearing LNCaP-AR tumors were measured. Serum tPSA values were determined in separate cohorts of mice at one, three, or seven days post-WST11 VTP (four, six or ten days post-degarelix).

LNCaP-AR tumors = test: Histology and immunohistochemistry of treated tumors (TUNEL, AR, Ki67); assay type: in vivo, mice; details: for TUNEL staining (cell death): tumors on days three and seven post-VTP (FIG. 5B)
Description: (§1) (v) Histology and immunohistochemistry: All tumor specimens were fixed in 10% buffered formalin (Fisher Scientific, Pittsburgh, Pa.), processed routinely, embedded in paraffin, sectioned at 5-micron thickness, and stained with hematoxylin-eosin (H&E). Immunohistochemistry (IHC) of tumors was performed on 5 micron formalin-fixed paraffin embedded (FFPE) section following heat induced epitope retrieval (HIER) in a buffer at pH 9.0. AR staining with anti-AR antibody (at 0.66 μg/ml, Abcam, Cambridge, Mass.) and TUNEL staining for cell death with terminal deoxynucleotidyl transferase dUTP nick-end labeling (Roche Diagnostics, Indianapolis, Ind.) was performed using Discovery XT processor (Ventana Medical Systems, Inc., Tucson, Ariz.) at the Molecular Cytology core facility. IHC staining for CD31 and Ki67 markers was performed on FFPE sections at the Laboratory of Comparative Pathology on a Leica Bond RX automated stainer (Leica Biosystems, Buffalo Grove, Ill.). […] For quantification of CD31, Ki67 and TUNEL staining, whole slide digital images were generated on a scanner (Pannoramic 250 Flash III, 3DHistech, 20×/0.8NA objective, Budapest, Hungary) at a resolution of 0.2431 μm per pixel. Staining quantification was performed with QuPath 0.1.2 software (Centre for Cancer Research & Cell Biology, Queen's University Belfast, UK). […] For CD31 and TUNEL, the positive area, defined as the ratio of DAB stained pixels to total ROI area, was measured using the positive pixel count algorithm. For Ki67, the ratio (percentage) of cells with positive nuclear staining to total cell number was measured with the positive cell detection algorithm. […]
(§2) (vii) Statistical analysis: Two-way ANOVA test using GraphPad Prism (GraphPad Software, La Jolla, Calif.) was used for therapeutic efficacy in affecting tumor growth, and One-way ANOVA for PSA and a Mann-Whitney test for CD31, Ki67 or TUNEL staining quantification. […]

[1] = tested on: LNCaP-AR xenograft tumors; test: GSEA transcriptome analysis of LNCaP-AR xenografts following VTP; assay type: in vivo, SCID mice
Description: (vi) GSEA for transcriptome analysis of LNCaP-AR xenografts following VTP treatment: LNCaP/AR xenografts were established in intact SCID mice by injecting 2 million cells as described previously [Chen et al., 2004] and, once established, were treated with VTP at 9 mg/kg WST11 followed by 753 nm illumination at 100 mW/cm^2 laser fluence. Tumors were collected at 3, 6, or 24 hours, 1 week and 8.5 weeks post VTP and RNA was isolated following the standard protocol using TRIzol (Fisher Scientific). Expression profiling was performed using Illumina HT-12 Expression BeadChip array and the data was analyzed using Partek Genomics Suite (Partek Inc., St. Louis, Mo.). The microarray data then underwent secondary analysis by GSEA [Subramanian et al., 2005] using gene sets from the Hallmark and C2, Canonical Pathways collections (Molecular Signature Databases v6.0 (MSigDB); Broad Institute at http site //software.broadinstitute.org/gsea/msigdb.GSEA| MSigDB. Accessed 19 Jun. 2017. Microarray data has been deposited in the National Center for Biotechnology Information Gene Expression Omnibus (GEO) (GSE109681). To identify potential druggable pathways active in PCa that could be exploited for combination therapy with VTP, we analyzed the transcriptome of LNCaP-AR xenograft tumors following acute response to VTP exposure. […]

low-risk, localized PCa = details: cited from earlier work
CD31 = CD31 IHC staining of tumors (vessel quantification); assay type: in vivo, mice
Description: as §1, with “9.0.” for “9.0. AR staining with anti-AR antibody (at 0.66 μg/ml, Abcam, Cambridge, Mass.) and TUNEL staining for cell death with terminal deoxynucleotidyl transferase dUTP nick-end labeling (Roche Diagnostics, Indianapolis, Ind.) was performed using Discovery XT processor (Ventana Medical Systems, Inc., Tucson, Ariz.) at the Molecular Cytology core facility. IHC staining for CD31 and Ki67 markers was performed on FFPE sections at the Laboratory of Comparative Pathology on a Leica Bond RX automated stainer (Leica Biosystems, Buffalo Grove, Ill.).”
as §2

Compound | fold changes of serum tPSA (total PSA (tPSA)) | TUNEL staining (cell death) (LNCaP-AR tumors) | gene sets related to hypoxia, HIF1A, and VEGFR pathways (GSEA) ([1]; three to six hours post-VTP treatment) | AR signaling gene sets (GSEA) ([1]; three to six hours post-VTP, vs control mice) | patients negative for cancer in follow up biopsies (low-risk, localized PCa; 6 months after prostate hemiablation, low-risk localized PCa) [%] | HR of disease progression versus active surveillance (low-risk, localized PCa; at 24 months, 95% CI 0.24-0.46, p<0.0001) | disease progression (low-risk, localized PCa; at 24 months, active surveillance 58%) [%] | patients free of clinically significant cancer in the treated lobes (low-risk, localized PCa; median follow-up of 68 months) [%] | treated patients who avoided a need for subsequent radical therapy (low-risk, localized PCa; median follow-up of 68 months) [%] | Ki67 signal (tumor proliferation) (LNCaP-AR tumors; day 7 post-VTP, p<0.05 vs controls (FIG. 5C)) | number of vessels in tumors by CD31 image analysis (CD31; FIG. 6A, versus control group) | decrease in CD31 staining area compared to controls (CD31; degarelix-treated n=11 vs control n=12, p<0.05 (FIG. 6B)) [%]
CCC1c2cc3[n-]c(c(CC(=O)OC)c4nc(cc5[n-]c(cc(n2)C1C)c(C(C)=O)c5C)C(C)C4CCC(=O)[O-])c(C(=O)NCCS(=O)(=O)[O-])c3C.[K+].[K+].[Pd+2] (centres unmarked) [WST11/VTP, Palladium 3^1-oxo-15-methoxycarbonylmethyl-rhodobacteriochlorin 13^1-(2-sulfoethyl) amide dipotassium salt] | declined | partial cell death characterized by large foci of TUNEL staining | statistically significant enrichments | up-regulated | 80.6 | 0.34 | 28 | 82 | 76 |  |  | 
CC(=O)N[C@H](Cc1ccc2ccccc2c1)C(=O)N[C@H](Cc1ccc(Cl)cc1)C(=O)N[C@H](Cc1cccnc1)C(=O)N[C@@H](CO)C(=O)N[C@@H](Cc1ccc(NC(=O)[C@@H]2CC(=O)NC(=O)N2)cc1)C(=O)N[C@H](Cc1ccc(NC(N)=O)cc1)C(=O)N[C@@H](CC(C)C)C(=O)N[C@@H](CCCCNC(C)C)C(=O)N1CCC[C@H]1C(=O)N[C@H](C)C(N)=O [degarelix] (Ac-[d2Nal][dPhe(4-Cl)][d3Pal]S[Phe(4-NH2)](Dihydroorotyl(S))[dPhe(4-NHCONH2)]L[Lys(iPr)]P[dA]-NH2) | declined | little TUNEL staining |  |  |  |  |  |  |  | reduced Ki67 signal compared to controls | appear to have fewer vessels | 38
